The source of these data is patent publication US8222248B2, “Organic compounds” (Novartis AG, priority 2006, dated 2012).

In one series the target is T1, human DGAT1 (Homo sapiens, UniProt O75907).
T1 construct: made in house; host or cells: Sf9 cells (membrane preparation)
T1 sequence (O75907 1-488): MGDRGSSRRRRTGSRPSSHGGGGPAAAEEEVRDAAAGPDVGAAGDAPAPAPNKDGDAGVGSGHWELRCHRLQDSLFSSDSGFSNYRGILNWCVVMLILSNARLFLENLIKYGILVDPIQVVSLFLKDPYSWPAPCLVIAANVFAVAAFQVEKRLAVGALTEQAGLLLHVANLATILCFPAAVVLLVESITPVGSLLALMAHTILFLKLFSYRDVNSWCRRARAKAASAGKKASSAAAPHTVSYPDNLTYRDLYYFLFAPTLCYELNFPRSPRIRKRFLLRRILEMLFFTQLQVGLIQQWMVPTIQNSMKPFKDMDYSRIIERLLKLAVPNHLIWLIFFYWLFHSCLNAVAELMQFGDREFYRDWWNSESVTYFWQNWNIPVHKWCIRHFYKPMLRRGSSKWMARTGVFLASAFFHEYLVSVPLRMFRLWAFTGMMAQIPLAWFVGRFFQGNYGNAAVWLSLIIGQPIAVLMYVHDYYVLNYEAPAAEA
The series is described as follows: DGAT1 enzyme inhibition assay (membrane preparation, LC/MS/MS readout). It counts as biochemical. On the procedure:
The enzyme preparation used in this assay is a membrane preparation from Sf9 cells overexpressing human (His)6DGAT1. During all steps samples were chilled to 4° C. Sf9 cells expressing human (His)6DGAT1 were thawed at RT and re-suspended at a 10:1 ratio (mL buffer/g of cells) in 50 mM HEPES, 1× Complete Protease Inhibitor, pH 7.5.
The re-suspended pellet was homogenized for 1 min using a Brinkman PT 10/35 homogenizer with a 20 mm generator. Cells were lysed using Avestin Emulsiflex (chilled to 4° C.) at 10000-15000 psi. Lysate was centrifuged at 100,000×g for 1 h at 4° C. Supernatant was removed and pellets were re-suspended in 50 mM HEPES, 1× Complete Protease Inhibitor, pH 7.5 at ⅙ the volume of supernatant. Re-suspended pellets were pooled and homogenized with 10 strokes of a Glas-Col motor driven teflon pestle on setting 70. The protein concentration of the membrane preparation was quantified using BCA protein assay with 1% SDS. The membrane preparation was aliquoted, frozen on dry ice, and stored at −80° C.
For 50 mL, 25 mL of 0.2 M HEPES stock buffer, 0.5 mL of 1 M MgCl2 ([…]), and 24.5 mL of milli-Q H2O are added to the 55 mL Wheaton Potter-Elvehjem homogenizer. Enzyme preparation (0.1 mL) is added to buffer and the mixture is homogenized with 5 strokes on ice using the Glas-Col variable speed homogenizer system on setting 70.
For 50 mL, 0.5 mL 10 mM diolein is added to 9.5 mL of EtOH in a 50 mL Falcon screw cap conical centrifuge tube. Five mL of 10 mM sodium acetate pH 4.5 is added followed by 0.5 mL of 10 mM oleoyl-CoA. Finally, the remaining 4.5 mL of 10 mM sodium acetate pH 4.5 is added followed by 30 mL of milli-Q H20. The solution should be gently agitated by hand to induce mixing. The final concentrations of EtOH and sodium acetate are 20% and 2 mM, respectively.
Dry compounds are dissolved in the appropriate volume of DMSO to a final concentration of 10 mM. A 10-point, 3-fold dose response is used to evaluate compound potency. All dilutions are performed in DMSO in a Greiner 384-well microplate.
1. 2 μL of compound in DMSO is added to the appropriate wells. 2 μL of DMSO is added to 100% activity and 100% inhibition controls.
2. 25 μL of enzyme mix is added to all wells and plate(s) are incubated for 10 min at RT.
3. 10 μL of 20% acetic acid quench is added to 100% inhibition control wells. Plate(s) are vortexed using Troemner multi-tube vortexer (setting 7 for 10 sec).
4. 25 μL of substrate mix is added to all wells. Plate(s) are vortexed using Troemner multi-tube vortexer (setting 7 for 10 sec). Plate(s) are incubated for 30 min at RT.
5. 10 μL of 20% acetic acid quench is added to all wells. Plate(s) are vortexed using Troemner multi-tube vortexer (setting 7 for 10 sec).
6. 50 μL of 1-butanol w/glyceryl tripalmitoleate internal standard is added to all wells.
7. Plate(s) are sealed with super pierce strong plate sealer using the thermo-sealer.
8. Plate(s) are vortexed using Troemner multi-tube vortexer (setting 10 for 5 min).
9. Plate(s) are centrifuged at 162×g (1000 rpm for GH-3.8 rotor) for 5 min using Beckman GS-6R tabletop centrifuge.
Samples were analyzed by LC/MS/MS using a Waters 1525 μLC and Quattro Micro API MS. Where indicated, tripalmitolein was used as an internal standard to control for instrument variation.
Data is converted to % inhibition prior to curve fitting using the following equation: […]

[1] abbreviates: inhibitory activity to human DGAT1, Table 1, values given as ranges.
[2] abbreviates: DGAT1 inhibitory activity, table at end of examples.

On to `Cc1ccc(NC(=O)c2ccc3oc(-c4c(C)cc(OCC(=O)N(C)C)cc4C)nc3c2)cc1C` [Example 4-23, 2-(4-Dimethylcarbamoylmethoxy-2,6-dimethylphenyl)-benzooxazole-5-carboxylic acid (3,4-dimethylphenyl)-amide], for which the melting point (usually the temperature of the solid-liquid transition) was in the range of 207 to 209 °C. As for `CCOc1cccc(CCNC(=O)c2ccc3nc(-c4c(Cl)cccc4Cl)[nH]c3c2)c1` [Example 1-82, 2-(2,6-Dichloro-phenyl)-3H-benzoimidazole-5-carboxylic acid [2-(3-ethoxy-phenyl)-ethyl]-amide], the IC50 (commonly the concentration that inhibits the measured activity by half) against human DGAT1 (setting [1]) is less than 1 µM.

For `Cc1ccc(NC(=O)c2ccc3c(c2)C(=O)N(c2c(Cl)cccc2Cl)C3=O)cc1C` [Example 7-2, 2-(2,6-Dichlorophenyl)-1,3-dioxo-2,3-dihydro-1H-isoindole-5-carboxylic acid (3,4-dimethylphenyl)-amide], the melting point lay within 238 to 240 °C. Consider `O=C(Nc1cccc(Cl)c1)c1ccc2nc(-c3cccc(Cl)c3Cl)[nH]c2c1` [Example 1-124, 2-(2,3-Dichloro-phenyl)-3H-benzoimidazole-5-carboxylic acid (3-chloro-phenyl)-amide], for which the IC50 against human DGAT1 (setting [2]) turned out to be 0.23 µM.

In the case of `CC(=O)Nc1ccc2nc(-c3c(Cl)cccc3Cl)[nH]c2c1` [Example 1-6], the IC50 against human DGAT1 (setting [1]) is 1 to 30 µM.

The compound `Cc1ccc(NC(=O)c2ccc3c(c2)C(=O)N(c2c(C)cccc2C)C3=O)cc1C` [Example 7-1, 2-(2,6-Dimethylphenyl)-1,3-dioxo-2,3-dihydro-1H-isoindole-5-carboxylic acid (3,4-dimethylphenyl)-amide] yielded a melting point of 223 to 225 °C. Turning to `Cc1cccc(C(=O)Nc2ccc3nc(-c4c(Cl)cccc4Cl)[nH]c3c2)c1` [Example 1-11, N-[2-(2,6-Dichloro-phenyl)-3H-benzoimidazol-5-yl]-3-methyl-benzamide], half-maximal inhibition against human DGAT1 (setting [2]) (IC50) was put at 6.9 µM.

Take `Cc1ccccc1CNC(=O)c1ccc2nc(-c3c(Cl)cccc3Cl)oc2c1` [Example 4-15, 2-(2,6-Dichloro-phenyl)-benzooxazole-6-carboxylic acid 2-methyl-benzylamide]: the IC50 against human DGAT1 (setting [2]) is 6.8 µM.

The compound `Cc1nc2cc(NC(=O)c3ccc4[nH]c(-c5c(Cl)cccc5Cl)cc4c3)ccc2s1` [Example 3-1, 2-(2,6-dichloro-phenyl)-1H-indole-5-carboxylic acid (2-methyl-benzothiazol-5-yl)-amide] displayed an IC50 at human DGAT1 (setting [1]) of 1 to 30 µM. Compound `COC(=O)c1ccc(-c2nc3ccc(C(=O)Nc4cccc(Cl)c4)cc3[nH]2)cc1` [Example 1-136, 4-[6-(3-Chloro-phenylcarbamoyl)-1H-benzoimidazol-2-yl]-benzoic acid methyl ester] came in with an IC50 at human DGAT1 (setting [2]) of 12 µM. Take `COc1ccccc1CCNC(=O)c1ccc2nc(-c3c(Cl)cccc3Cl)oc2c1` [Example 4-11, 2-(2,6-Dichloro-phenyl)-benzooxazole-6-carboxylic acid [2-(2-methoxy-phenyl)-ethyl]-amide]: on human DGAT1 (setting [1]), the IC50 lay within 30 to 100 µM.
